One assay concerns PAF-induced Hypotension. As to the kind of experiment: Inhibition of PAF-induced Hypotension in Normotensive Rats. Type of assay: in vivo, male Sprague-Dawley rats. To be noted: anesthetized normotensive rats, i.v. 3 min. before PAF (0.5 μg/Kg), dose inhibiting hypotension by 50%; for ED50: Rattus norvegicus, iv, 0.05 h, read-out: ID50 (the source's name). How it is done: Inhibition of PAF-induced Hypotension in Normotensive Rats.
Male Sprague-Dawley rats, weighing 180-220 g, were anesthetized with sodium pentobarbital (50 mg/Kg i.p.). Blood pressure was recorded from the left carotid artery using a Statham pressure transducer coupled to a Beckman R611 recorder. Right and left fernoral veins were catheterized to inject test compounds and PAF (0.5 μg/Kg). Test compounds were administered by intravenous injection (1 mL/Kg, dissolved in saline) 3 min. before PAF. Blood pressure was monitored and percent inhibition of PAF-induced hypotension with respect to controls was calculated.

In assay [1] the test system is Platelet Aggregation Induced by PAF (platelet rich plasma). As to the kind of experiment: Inhibition of Platelet Aggregation Induced by PAF. It is filed as cell-based, male New Zealand rabbits. To be noted: rabbit platelet rich plasma, aggregation induced by C18-PAF (15 nM). The procedure:
Inhibition of Platelet Aggregation Induced by PAF.
Platelet rich plasma (PRP) was prepared by centrifuging the blood at 250 xg for 10 min. at 4° C. The PRP was diluted with platelet-poor plasma (PPP) obtained by further centrifuging at 3000 xg for 10 min. The platelet count was adjusted to 3×10^5cells/mm^3.

In the case of `Cc1nc2cnccc2n1CC1CCN(C(=O)CC(c2ccccc2)c2ccccc2)CC1` [Compound 1, 1-[[1-(3,3-Diphenylpropionyl)-4-piperidyl]methyl]-1H-2-methylimidazo[4,5-c]pyridine], in the assay on PAF-induced Hypotension, the ED50 is 0.0086 mg/kg. In addition, the IC50 in assay [1] (Oryctolagus cuniculus) stood at 7.6 nM. For the compound `Cc1nc2cnccc2n1CC1CCN(C(=O)C=C(c2ccccc2)c2ccc([N+](=O)[O-])cc2)CC1` [Compound 16, cis and trans-1-[[1-[3-(4-Nitrophenyl)-3-phenylpropenoyl]-4-piperidyl]methyl]-1H-2-methylimidazo[4,5-c]pyridine], in assay [1] (Oryctolagus cuniculus), the IC50 was 9.2 nM. `Cc1nc2cnccc2n1CC1CCN(C(=O)/C=C(/c2ccccc2)c2ccc(N)cc2)CC1` [Compound 17a, cis-1-[[1-[3-(4-Aminophenyl)-3-phenylpropenoyl]-4-piperidyl]methyl]-1H-2-methylimidazo[4,5-c]pyridine]: the ID50 in the assay on PAF-induced Hypotension amounted to 0.029 mg/kg. Further, the IC50 in assay [1] is 18 nM. Consider `Cc1nc2cnccc2n1CC1CCN(C(=O)/C=C(\c2ccccc2)c2ccc(N)cc2)CC1` [Compound 17b, trans-1-[[1-[3-(4-Aminophenyl)-3-phenylpropenoyl]-4-piperidyl]methyl]-1H-2-methylimidazo[4,5-c]pyridine], for which the ID50 with PAF-induced Hypotension is 0.01 to 0.025 mg/kg. Besides, in assay [1], the IC50 is 5 nM. As for `Cc1nc2cnccc2n1CC1CCN(C(=O)CC(C)(O)c2ccccc2)CC1` (stereo not drawn) [Compound 21, 1-[[1-(3-Hydroxy-3-phenylbutanoyl)-4-piperidyl]methyl]-1H-2-methylimidazo[4,5-c]pyridine], in the assay on PAF-induced Hypotension, the ED50 amounted to 0.043 mg/kg. In addition, the IC50 in assay [1] (Oryctolagus cuniculus) turned out to be 6.9 nM. Regarding `Cc1nc2cnccc2n1CC1CCN(C(=O)CC(C)c2ccc(N)cc2)CC1` (stereo not drawn) [Compound 23, 1-[[1-[3-(4-Aminophenyl)butanoyl]-4-piperidyl]methyl]-1H-2-methylimidazo[4,5-c]pyridine], the IC50 in assay [1] (Oryctolagus cuniculus) amounted to 11 nM. For the compound `Cc1nc2cnccc2n1CC1CCN(C(=O)C=C(c2ccccc2)c2cccc(N)c2)CC1` [Compound 30, cis and trans-1-[[1-[3-(3-Aminophenyl)-3-phenylpropenoyl]-4-piperidyl]methyl]-1H-2-methylimidazo[4,5-c]pyridine], the ED50 with PAF-induced Hypotension stood at 0.015 mg/kg. Turning to `CCCC(CC(=O)N1CCC(Cn2c(C)nc3cnccc32)CC1)c1ccccc1` (stereo not drawn) [Compound 32, 1-[[1-(3-Phenylhexanoyl)-4-piperidyl]methyl]-1H-2-methylimidazo[4,5-c]pyridine], the ED50 with PAF-induced Hypotension was determined as 0.0079 mg/kg. Further, half-maximal inhibition in assay [1] (Oryctolagus cuniculus) (IC50) required 11 nM. In assay [1] (Oryctolagus cuniculus), `CCOC(=O)[C@@H](NC(=O)N1CCC(Cn2c(C)nc3cnccc32)CC1)c1ccccc1` [Compound 39, (S)-1-[[1-[[N-(1-Ethoxycarbonyl-1-phenylmethyl)amino]carbonyl]-4-piperidyl]methyl]-1H-2-methylimidazo[4,5-c]pyridine] yielded a half-maximal inhibitory concentration (IC50) of 16 nM.

As for `Cc1nc2cnccc2n1CC1CCN(C(=O)CC(C)c2ccccc2)CC1` (stereo not drawn) [Compound 40, 1-[[1-(3-Phenylbutanoyl)-4-piperidyl]methyl]-1H-2-methylimidazo[4,5-c]pyridine], the ED50 in the assay with PAF-induced Hypotension is 0.033 mg/kg. In assay [1] (Oryctolagus cuniculus), this compound gave an IC50 of 12 nM.

On to `Cc1nc2cnccc2n1CC1CCN(C(=O)CC(C)(C)c2ccccc2)CC1` [Compound 41, 1-[[1-(3-Methyl-3-phenylbutanoyl)-4-piperidyl]methyl]-1H-2-methylimidazo[4,5-c]pyridine], for which, in the assay with PAF-induced Hypotension, the ED50 amounted to 0.012 mg/kg. Half-maximal inhibition in assay [1] (Oryctolagus cuniculus) (IC50) required 6.7 nM. Turning to `Cc1nc2cnccc2n1CC1CCN(C(=O)CC(C)(C)c2ccc(N)cc2)CC1` [Compound 44, 1-[[1-[3-(4-Aminophenyl)-3-methylbutanoyl]-4-piperidyl]methyl]-1H-2-methylimidazo[4,5-c]pyridine], the IC50 in assay [1] (Oryctolagus cuniculus) came to 19 nM. With `Cc1nc2cnccc2n1CC1CCN(C(=O)CC(O)(c2ccccc2)C(F)(F)F)CC1` (stereo not drawn) [Compound 47], the ED50 in the assay with PAF-induced Hypotension turned out to be 0.013 mg/kg. Further, the IC50 in assay [1] (Oryctolagus cuniculus) is 36 nM.

As for `Cc1nc2cnccc2n1CC1CCN(C(=O)N[C@H](C)c2ccccc2)CC1` [Compound 50, (R)-1-[[1-[(1-Phenylethylamino)carbonyl]-4-piperidyl]methyl]-1H-2-methylimidazo[4,5-c]pyridine], the ED50 in the assay with PAF-induced Hypotension is 0.017 mg/kg. Besides, the IC50 in assay [1] (Oryctolagus cuniculus) was determined as 13 nM. The matching figures for `Cc1nc2cnccc2n1CC1CCN(C(=O)NC2(c3ccccc3)CC2)CC1` [Compound 59, 1-[[1-[(1-Phenyl-1-cyclopropylamino)carbonyl]-4-piperidyl]methyl]-1H-2-methylimidazo[4,5-c]pyridine]: 0.021 mg/kg and 17 nM.

Consider `CCOC[C@@H](NC(=O)N1CCC(Cn2c(C)nc3cnccc32)CC1)c1ccccc1` [Compound 60, (S)-1-[[1-[(2-Ethoxy-1-phenylethylamino)carbonyl]-4opiperidyl]methyl]-1H-2-methylimidazo[4,5-c]pyridine], for which the ED50 with PAF-induced Hypotension stood at 0.019 mg/kg. For the same compound, the IC50 in assay [1] (Oryctolagus cuniculus) was 17 nM.

`Cc1nc2cnccc2n1CC1CCN(S(=O)(=O)CC(C)(C)c2ccccc2)CC1` [Compound 61, 1-[[1-[(2-Methyl-2-phenylpropyl)sulfonyl]-4-piperidyl]methyl]-1H-2-methylimidazo[4,5-c]pyridine] gave an IC50 in assay [1] (Oryctolagus cuniculus) of 6.2 nM.

For `Cc1nc2cnccc2n1CC1CCN(C(=O)OCC2(c3ccccc3)CC2)CC1` [Compound 70, 1-[[1-[[(1-Phenyl-1-cyclopropyl)methoxy]carbonyl]-4-piperidyl]methyl]-1H-2-methylimidazo[4,5-c]pyridine], the ED50 in the assay with PAF-induced Hypotension was determined as 0.014 mg/kg. Also, the midpoint of inhibition in assay [1] (Oryctolagus cuniculus), the IC50, lay at 34 nM.

A word on the IC50: it is the point on the concentration scale where inhibition reaches its midpoint.

Source of the values: patent US5705504A, “Piperidine derivatives with PAF antagonist activity” (J. Uriach & Cia, S.A., priority 1994, dated 1998).
